According to the NIST ThermoML archive (doi:10.1021/je101316g):
± gives the expanded uncertainty stated by the source.

Columns and labels:
[1] = 101.33 kPa, Liquid; for mass density: Vibrating tube method
[2] = refractive index (Na D-line) (dimensionless); conditions: 101.33 kPa, Liquid, Standard Abbe refractometry

CCCCC(CC)COC(=O)CC(C(=O)OCC(CC)CCCC)S(=O)(=O)[O-].CCCCCC[n+]1ccn(CCC#N)c1 (stereo not drawn)
Conditions	mass density, [1] [kg/m3]	refractive index, [2]	viscosity, [1] [mPa·s]
293.15 K	1092.7 ± 2.6	–	–
298.15 K	1089 ± 2.6	1.4797 ± 0.00076	19896 ± 6400
303.15 K	1085.4 ± 2.6	1.47841 ± 0.00076	12117 ± 3600
308.15 K	1081.8 ± 2.5	1.47709 ± 0.00076	7571.4 ± 2100
313.15 K	1078.3 ± 2.5	1.4758 ± 0.00076	4586.7 ± 1100
318.15 K	1074.8 ± 2.5	1.47447 ± 0.00076	2939.5 ± 650
323.15 K	1071.3 ± 2.5	1.47305 ± 0.00076	1947.7 ± 390
328.15 K	1067.9 ± 2.5	1.47171 ± 0.00076	1264.7 ± 220
333.15 K	1064.4 ± 2.5	1.47029 ± 0.00077	848.3 ± 130
338.15 K	1061 ± 2.4	–	579.4 ± 78
343.15 K	1057.6 ± 2.4	–	411.4 ± 48
348.15 K	1054.2 ± 2.4	–	278.6 ± 27
353.15 K	1050.7 ± 2.4	–	191.2 ± 15

CCCCCCn1cc[n+](CCC#N)c1.O=S(=O)([O-])C(F)(F)F
Conditions	mass density, [1] [kg/m3]	refractive index, [2]	viscosity, [1] [mPa·s]
293.15 K	1289.6 ± 4.6	–	2243.6 ± 460
298.15 K	1285.7 ± 4.6	1.52975 ± 0.0008	1469.7 ± 270
303.15 K	1281.9 ± 4.6	1.52891 ± 0.00081	991.9 ± 160
308.15 K	1278.3 ± 4.6	1.52774 ± 0.00081	648.5 ± 91
313.15 K	1274.6 ± 4.5	1.52683 ± 0.00081	437.8 ± 52
318.15 K	1271 ± 4.5	1.5259 ± 0.00081	301.9 ± 30
323.15 K	1267.4 ± 4.5	1.52464 ± 0.00082	214 ± 18
328.15 K	1263.8 ± 4.5	1.52334 ± 0.00082	155.1 ± 10
333.15 K	1260.2 ± 4.4	1.52226 ± 0.00081	102.7 ± 4.7
338.15 K	1256.6 ± 4.4	–	77.4 ± 2.5
343.15 K	1253.1 ± 4.4	–	54.8 ± 1.3
348.15 K	1249.2 ± 4.3	–	40.1 ± 1
353.15 K	1245.8 ± 4.3	–	29.4 ± 0.8

CCCCCCn1cc[n+](CCC#N)c1.O=C([O-])c1cccc(S(=O)(=O)O)c1 [3-(2-cyanoethyl)-1-hexyl-1H-imidazolium 3-sulfobenzoate]
Conditions	mass density, [1] [kg/m3]	refractive index, [2]	viscosity, [1] [mPa·s]
293.15 K	1248.1 ± 3.6	–	19212 ± 6200
298.15 K	1244.6 ± 3.6	1.52295 ± 0.00074	11463 ± 3400
303.15 K	1241.2 ± 3.6	1.52221 ± 0.00074	7578.3 ± 2100
308.15 K	1238 ± 3.6	1.52146 ± 0.00075	4765.8 ± 1200
313.15 K	1234.7 ± 3.6	1.52029 ± 0.00076	3001.1 ± 670
318.15 K	1231.5 ± 3.5	1.51936 ± 0.00076	1953.3 ± 390
323.15 K	1228.2 ± 3.5	1.518 ± 0.00078	1189.9 ± 210
328.15 K	1225 ± 3.5	1.51666 ± 0.00079	830.5 ± 130
333.15 K	1221.8 ± 3.5	1.51502 ± 0.0008	557.3 ± 74
338.15 K	1218.6 ± 3.5	–	352.1 ± 38
343.15 K	1215.4 ± 3.4	–	225.5 ± 19
348.15 K	1212.1 ± 3.4	–	133.6 ± 7.9
353.15 K	1208.9 ± 3.4	–	92.8 ± 3.8

CCCCCCn1cc[n+](CCC#N)c1.O=S(=O)([O-])c1ccccc1 [3-(2-cyanoethyl)-1-hexyl-1H-imidazolium benzenesulfonate]
Conditions	mass density, [1] [kg/m3]	refractive index, [2]	viscosity, [1] [mPa·s]
293.15 K	1226 ± 2.5	–	7079.4 ± 1900
298.15 K	1222.7 ± 2.5	1.527 ± 0.00066	4268.1 ± 1000
303.15 K	1219.4 ± 2.5	1.5261 ± 0.00067	2865.6 ± 630
308.15 K	1216.1 ± 2.5	1.52499 ± 0.00068	1795.1 ± 350
313.15 K	1212.8 ± 2.5	1.52382 ± 0.00068	1170.4 ± 200
318.15 K	1209.6 ± 2.5	1.52266 ± 0.00068	781.3 ± 120
323.15 K	1206.3 ± 2.5	1.52145 ± 0.00068	537.6 ± 70
328.15 K	1203 ± 2.4	1.52025 ± 0.00069	359.9 ± 39
333.15 K	1199.7 ± 2.4	1.51899 ± 0.00069	274.2 ± 26
338.15 K	1196.5 ± 2.4	–	181 ± 13
343.15 K	1193.3 ± 2.4	–	133.6 ± 7.6
348.15 K	1190.1 ± 2.4	–	94.6 ± 3.8
353.15 K	1187.8 ± 2.4	–	70 ± 1.9

CCCCCCCCCCCCOS(=O)(=O)[O-].CCCCCCn1cc[n+](CCC#N)c1 [3-(2-cyanoethyl)-1-hexyl-1H-imidazolium dodecyl sulfate]
Conditions	mass density, [1] [kg/m3]	refractive index, [2]	viscosity, [1] [mPa·s]
293.15 K	1101.1 ± 2.3	–	–
298.15 K	1097.8 ± 2.3	1.48409 ± 0.00073	13770 ± 4200
303.15 K	1094.5 ± 2.3	1.48269 ± 0.00073	8252.7 ± 2300
308.15 K	1091.2 ± 2.3	1.48125 ± 0.00073	5185.2 ± 1300
313.15 K	1088 ± 2.3	1.47991 ± 0.00072	3354.6 ± 760
318.15 K	1084.7 ± 2.3	1.47863 ± 0.00073	2051 ± 410
323.15 K	1081.5 ± 2.3	1.47702 ± 0.00074	1301.8 ± 230
328.15 K	1078.3 ± 2.3	1.47566 ± 0.00073	846.3 ± 130
333.15 K	1075.1 ± 2.2	1.47422 ± 0.00073	566.9 ± 75
338.15 K	1071.9 ± 2.2	–	390.1 ± 44
343.15 K	1068.8 ± 2.2	–	274.9 ± 26
348.15 K	1065.6 ± 2.2	–	189.5 ± 14
353.15 K	1062.6 ± 2.2	–	133.6 ± 7.7
